# Laboratory results reported in patent US9446061B2, “Composition containing antibiotics and lysophosphatidylcholine for boosting immunity or treatment of bacterial infections” (priority 2011, dated 2016).
# Key:
# Assay type in all cases: in vivo, ICR mice
# [1] = test system: splenic CD3+, CD4+, CD8+ and TNF-α+ cells; assay: Immunohistochemistry of spleen in CPA-treated mice
# Experimental: (§1) After deparraffinized, CD3 epitope retrievals were conducted in 10 mM Tris-1 mM EDTA Buffer (pH 9.0), CD4 and CD8 in 1 mM EDTA Buffer (pH 8.0), and TNF-α in 10 mM Citrate Buffer (pH 6.0) as previous methods. Primary anti-antibodies used in the invention were as following table.
# (§2) The water bath with a staining dish, containing a buffer, was preheated until the temperature reached 95-100. The staining dish was placed at room temperature and the slides were cooled for 20 minutes. After epitope retrivals, sections were immunostained as following steps
# (§3) First, the sections were incubated with methanol and 0.3% H2O2 for 30 min to block endogenous peroxidase activity at room temperature, and then rinsed three times in 0.01M phosphate buffered saline (PBS; pH 7.2) for 3 times. Then, the sections were incubated with the normal horse serum blocking solution (Vector Lab. Inc., CA, USA., dilution 1:100) for 1 hr at room temperature in a humidity chamber, to block non-specific binding of immunoglobulin, and then rinsed three times in 0.01M PBS. The sections were incubated with four types of primary antisera for 12 hrs at 4 in a humidity chamber, and then rinsed three times in 0.01M PBS. The sections were incubated with universal biotinylated secondary antibody for 1 hr at room temperature in a humidity chamber, and then rinsed three times in 0.01M PBS. The sections were incubated with ABC reagents (Vectastain Elite ABC Kit, Vector Lab. Inc., CA, USA. Dilution 1:50) for 1 hr at room temperature in a humidity chamber, and then rinsed three times in 0.01M PBS. The sections were incubated in the peroxidase substrate kit (Vector Lab. Inc., CA) for 30 seconds at room temperature, and then rinsed three times in 0.01M PBS. The sections were counterstained with the Mayer's hematoxylin solution, and then rinsed in running tap water for 30 minutes. The sections were dehydrated through 95% ethanol for 2 min and 100% ethanol for […], and then rinsed in xylene for 2 hrs. After that, the sections were observed using a cover slip with permanent mounting medium under the light microscope (Zeiss, Germany).
# (§4) Histomorphometry—Among 1000 splenic or thymic cells, the numbers (N) of immunoreactive cells (CD3+, CD4+, CD8+, and TNF-α+) were observed as N/1000 splenocytes or thymocytes using automated image analysis. In thymus, the counts were conducted in the both cortex and medulla separately.
# CPA-CLP mice = assay: Mortality of CPA-CLP mice, LPC and DW286AA alone or combined (Example 9); s.c. 4 times 12-hr intervals from 6 hrs after CLP; details: for Survival rate: LPC 1, DW286 0.5, Mix 0.75 mg/kg; for survival rates (survivors/total in brackets), Table 13: mg/kg: LPC 1, LPC + DW286 0.5 + 0.25, DW286/LPC 0.5/1.0, LPC/DW286 1.0/0.5, DW286 0.5
# Source text: CPA is well known as an immunosuppressive agent. […] Then, the abdomen was closed following the general procedure.
# [2] = test system: thymic CD3+, CD4+, CD8+ and TNF-α+ cells; assay: Immunohistochemistry of thymus (cortex and medulla) in CPA-treated mice
# Experimental: as §1, §2, §3, §4
# [3] = test system: CPA-induced immunosuppressive mice; assay: Thymus and spleen organ weights in CPA-treated mice; details: LPC 1, DW286 0.5, Mix 0.75 mg/kg
# Experimental: At sacrifice of CPA-treated model, the wet-weights of spleen and thymus were measured and regarded as absolute weight and then relative organ weight (% of body weight) was calculated as follow:
# =[(Absolute organ weights/Body weight at sacrifice individual)×100]
# [4] = test system: CPA-induced immunosuppressive mice; assay: Histopathology/histomorphometry of thymus and spleen in CPA-treated mice; details: LPC 1, DW286 0.5, Mix 0.75 mg/kg
# Experimental: After measuring of organ weight, thymus and spleen was sampled. Sampled organs were fixed in 10% neutral buffered formalin. After paraffin embedding, 3-4 μm sections were prepared. Representative sections were stained with Hematoxylin and Eosin (H&E) for light microscopical examination. After that the histological profiles of individual organs were observed.
# The numbers of white pulps in spleen were calculated as N/histological sections (×50) using automated image analysis (analySIS Image Processing; SIS, Germany). In addition, the numbers of atrophic changes on thymic cortex/total observed number of thymus were also calculated.
# [5] = LPC 1, DW286 0.5, Mix 0.75 mg/kg
# [6] = spleen, CPA-treated mice, Mean ± S.D., n = 9
# [7] = thymus cortex, CPA-treated mice, Mean ± S.D., n = 9
# [8] = thymus medulla, CPA-treated mice, Mean ± S.D., n = 9
compound,measurement,setting,value
"CON=C1CN(c2nc3c(cc2F)c(=O)c(C(=O)O)cn3C2CC2)CC1(C)CN.Cl (stereo not drawn) [DW286aa, 7-[3-(aminomethyl)-4-(methoxyimino)-3-methyltetrahydro-1H-1-pyrrolyl]-1-cyclopropyl-6-fluoro-4-oxo-1,4-dihydro[1,8]naphthyridine-3-carboxylic acid hydrochloric acid salt]","numbers of splenic CD3+ cells, change compared to CPA control",[1]; [5],−14.02%
same,"numbers of splenic CD4+ cells, change compared to CPA control",[1]; [5],−10.82%
same,"numbers of splenic CD8+ cells, change compared to CPA control",[1]; [5],−10.63%
same,"splenic TNF-α+ cells, change compared to CPA control",[1]; [5],−13.840%
same,"CD3+ cells, Spleen (IHC-Histomorphometry)",[1]; [6],55.89 N/1000 splenocytes or thymocytes
same,"CD4+ cells, Spleen (IHC-Histomorphometry)",[1]; [6],41.22 N/1000 splenocytes or thymocytes
same,"CD8+ cells, Spleen (IHC-Histomorphometry)",[1]; [6],45.78 N/1000 splenocytes or thymocytes
same,"TNF-α+ cells, Spleen (IHC-Histomorphometry)",[1]; [6],40.11 N/1000 splenocytes or thymocytes
same,Survival rate,CPA-CLP mice; 1 day after CLP,100%
same,"survival rates (survivors/total in brackets), Table 13",CPA-CLP mice; 1 day after dosing,100 (9/9)
same,Survival rate,CPA-CLP mice; 2 days after CLP,44.44%
same,"survival rates (survivors/total in brackets), Table 13",CPA-CLP mice; 2 days after dosing,44 (4/9)
same,Survival rate,CPA-CLP mice; 3 days after CLP,33.33%
same,"survival rates (survivors/total in brackets), Table 13",CPA-CLP mice; 3 days after dosing,33 (3/9)
same,Survival rate,CPA-CLP mice; 4 days after CLP,0%
same,"survival rates (survivors/total in brackets), Table 13",CPA-CLP mice; 4 days after dosing,0 (0/9)
same,Survival rate,CPA-CLP mice; 5 days after CLP,0%
same,Survival rate,CPA-CLP mice; At CLP,100%
same,"survival rates (survivors/total in brackets), Table 13",CPA-CLP mice; Dosing Day 0,100 (9/9)
same,Survival rate,CPA-CLP mice; Total,100%
same,"numbers of thymic cortex CD3+ cells, change compared to CPA control",[2]; [5],−9.16%
same,"numbers of thymic cortex CD4+ cells, change compared to CPA control",[2]; [5],21.74%
same,"numbers of thymic cortex CD8+ cells, change compared to CPA control",[2]; [5],33.33%
same,"numbers of thymic medulla CD3+ cells, change compared to CPA control",[2]; [5],−33.33%
same,"numbers of thymic medulla CD4+ cells, change compared to CPA control",[2]; [5],27.27%
same,"numbers of thymic medulla CD8+ cells, change compared to CPA control",[2]; [5],−22.22%
same,"thymic cortex TNF-α+ cells, change compared to CPA control",[2]; [5],−13.040%
same,"thymic medulla TNF-α+ cells, change compared to CPA control",[2]; [5],0.00%
same,"CD3+ cells, Thymus: Cortex (IHC-Histomorphometry)",[2]; [7],165.33 N/1000 splenocytes or thymocytes
same,"CD4+ cells, Thymus: Cortex (IHC-Histomorphometry)",[2]; [7],3.11 N/1000 splenocytes or thymocytes
same,"CD8+ cells, Thymus: Cortex (IHC-Histomorphometry)",[2]; [7],4.00 N/1000 splenocytes or thymocytes
same,"TNF-α+ cells, Thymus: Cortex (IHC-Histomorphometry)",[2]; [7],2.22 N/1000 splenocytes or thymocytes
same,"CD3+ cells, Thymus: Medulla (IHC-Histomorphometry)",[2]; [8],0.22 N/1000 splenocytes or thymocytes
same,"CD4+ cells, Thymus: Medulla (IHC-Histomorphometry)",[2]; [8],1.78 N/1000 splenocytes or thymocytes
same,"CD8+ cells, Thymus: Medulla (IHC-Histomorphometry)",[2]; [8],1.56 N/1000 splenocytes or thymocytes
same,"TNF-α+ cells, Thymus: Medulla (IHC-Histomorphometry)",[2]; [8],0.00 N/1000 splenocytes or thymocytes
same,"Spleen weight, Relative",[3]; % of body weight at sacrifice,0.117 ± 0.023 %
same,"Thymus weight, Relative",[3]; % of body weight at sacrifice,0.082 ± 0.018 %
same,"absolute splenic weights, change compared to CPA control",[3],−7.08%
same,"absolute thymic weights, change compared to CPA control",[3],−2.73%
same,"relative splenic weights, change compared to CPA control",[3],−7.46%
same,"relative thymic weights, change compared to CPA control",[3],−3.12%
same,"Spleen weight, Absolute",[3]; at sacrifice,0.045 ± 0.009 g
same,"Thymus weight, Absolute",[3]; at sacrifice,0.032 ± 0.008 g
same,Spleen: Number of white pulps,[4],6.11 ± 1.45 N/histological sections
same,Thymus: Incidences of thymic cortex atrophy (atrophic changes/total observed number of thymus),[4],9/9 (100%)
same,incidences of decrease of lymphoid cells in the thymic cortex,[4],100%
same,"numbers of white pulps of spleen, change compared to CPA control",[4],−1.79%
